Assays:
benzodiazepine receptors [1] = settings: U.S. Pat. No. 4,849,421; cited from earlier work
[2] = Effects on seizure induced by maximal electroshock (anti-MES action); format: in vivo, male ddY mice; settings: 1 hour before MES
Method: The test was carried out using groups of five male ddY mice. The animals were challenged with a maximal electroshock (MES, AC 2000 V, 12.5 mA, 0.2 sec) delivered through bilatesal corneal electrodes 1 hour after the oral or intraperitoneal administration of the test compounds. Antagonism of MES-induced seizure was defined as the absence of the tonic extention.

benzodiazepine receptors [3] = test: 3H-diazepam (3H-DZP) binding assay, displacement at benzodiazepine receptors; set-up: species or system Wistar rats (cerebral cortex); settings: tritiated diazepam 2 nM, 0° C., 20 min; read-out: Affinity for BZP receptors Ki
Method: ^3 H-DZP binding assay was carried out according to the previously described method in Life Science, vol. 20, 2101 (1977).
The crude cynaptosomal fraction prepared from the cerebral cortex of Wistar rats aged 9-10 weeks was suspended in 50 mM Tris-hydrochloric acid buffer (pH 7.4) containing 120 mM sodium chloride and 5 mM potassium chloride. These suspensions were used for the following experiment.
The reaction was started by the addition of synaptosomal suspension to the solution containing tritiated diazepam (final concentration is 2 nM) and a known concentration of test compounds at 0° C. for 20 min. The binding was stopped by the filtration under vacuum through Whatman GF/B filters and the filters were immediately washed with the above-mentioned buffer. The radioactivity on the filters was measured by a liquid scintillation counter.
The binding affinities of the compound of the present invention for benzodiazepine receptors are evaluated from its displacement ability for tritiated diazepam at its binding site, which is represented as Ki value (nM).

Anti-bicuculline action = format: in vivo, male ddY mice; settings: Mus musculus; (+) bicuculline 0.6 mg/kg i.v. 1 hour after oral administration; prevention of tonic extention; read-out: Antibicuculline effect ED50
Method: The anti-bicuculline action of the test compounds was done according to the method reported in Life Science, vol. 21, 1779 (1977).
The test was carried out using groups of 7-14 male ddY mice weighing 20-25 g. The animals were challenged with (+) bicuculline (0.6 mg/kg i.v.) 1 hour after the oral administration of the test compounds. The ED50 values were calculated by the probit method as the dose which prevent the tonic extention in half of the animals.

[4] = Antianxiety effect (Vogel type conflict test); format: in vivo, Wistar rats; settings: Rattus norvegicus, po; orally 1 hr before test; P<0.05 vs 0.5% MC control; read-out: Antianxiety effect MED (minimum effective dose)
Source text: The experimental procedure used modified the method of Vogel et al (1971). Wistar rats were used. They were deprived of water for 72 hr before the test. The rats were placed in a plexiglas conflict test box (light compartment: 38×38×20 cm, dark compartment: 10×10×20 cm). A water bottle with a stainless steel spout was fitted to the middle of the outside, so that the spout extended 3 cm into the box at a height of 10 cm above the grid floor. A drinkometer circuit (Ohara Inc., Nihon Koden) was connected with the spout and the number of licks were counted. The rat was placed into the apparatus where an electric shock (0.2-0.3 mA, 0.3 sec) was given once every 20th lick. After the rat received the first electric shock, the number of shocks were recorded during the subsequent 3 min test period. The test compounds were administered orally 1 hr before the test. The minimum effective dose (MED) was defined as the lowest dose producing a statistically significant difference between 0.5% MC-treated (control) and test drug treated punished responses (One-way ANOVA test; P<0.05).

| SMILES | Inhibitory rate (anti-MES) ([2]; 30 mg/kg i.p.) | Ki (benzodiazepine receptors [3]) | ED50 (Anti-bicuculline action) | also measured |
| --- | --- | --- | --- | --- |
| O=c1cc2c(nn1-c1ccc(Cl)cc1)-c1ccccc1SCC2 [2-(4-chlorophenyl)-5,6-dihydro[1]benzothiepino[5,4-c]pyridazin-3(2H)-one] |  |  |  | activity against BZP receptors (benzodiazepine receptors [1]): partial agonistic activity |
| O=C1CC2CCSc3sccc3C2=NN1c1ccc(Cl)cc1 (centres unmarked) [Example 14] | 100% |  |  | Inhibitory rate (anti-MES) ([2]; 30 mg/kg p.o.): 40%; Inhibitory rate (anti-MES) ([2]; 100 mg/kg p.o.): 100% |
| CCc1cc2c(s1)SCCc1cc(=O)n(-c3ccc(Cl)cc3)nc1-2 [Example 22, 2-(4-chlorophenyl)-9-ethyl-5,6-dihydrothieno[2',3':2,3]thiepino[4,5-c]pyridazin-3(2H)-one] |  | 1800 pM | 0.49 mg/kg |  |
| CCc1cc2c(s1)[S+]([O-])CCc1cc(=O)n(-c3ccc(Cl)cc3)nc1-2 (centres unmarked) [Example 25, 2-(4-chlorophenyl)-9-ethyl-5,6-dihydrothieno[2',3':2,3]thiepino[4,5-c]pyridazin-3(2H)-one 7-oxide] | 80% | 1400 pM | 0.66 mg/kg |  |
| O=c1cc2c(nn1-c1ccc(Cl)cc1)-c1cc(Br)sc1[S+]([O-])CC2 (centres unmarked) [Example 26, 9-bromo-2-(4-chlorophenyl)-5,6-dihydrothieno[2',3':2,3]thiepino[4,5-c]pyridazin-3(2H)-one 7-oxide] |  | 1400 pM | 0.56 mg/kg |  |
| CCc1cc2c(s1)S(=O)(=O)CCc1cc(=O)n(-c3ccc(Cl)cc3)nc1-2 [Example 28, 2-(4-Chlorophenyl)-9-ethyl-5,6-dihydrothieno[2',3':2,3]thiepino[4,5-c]pyridazin-3(2H)-one 7,7-dioxide] |  | 630 pM | 0.23 mg/kg | minimal effective dose [4]: 2.5 mg/kg |
| CC(O)c1cc2c(s1)S(=O)(=O)CCc1cc(=O)n(-c3ccc(Cl)cc3)nc1-2 (centres unmarked) [Example 50, 2-(4-chlorophenyl)-9-(1-hydroxyethyl)-5,6-dihydrothieno[2',3':2,3]thiepino[4,5-c]pyridazin-3(2H)-one 7,7-dioxide] |  | 970 pM | 0.87 mg/kg |  |
| CCc1cc2c(s1)SCCc1cc(=O)n(-c3ccc(OC)cc3)nc1-2 [Example 58, 9-ethyl-2-(4-methoxyphenyl)-5,6-dihydrothieno[2',3':2,3]thiepino[4,5-c]pyridazin-3(2H)-one] |  | 560 pM | 0.4 mg/kg |  |
| CCc1cc2c(s1)S(=O)(=O)CCc1cc(=O)n(-c3ccc(OC)cc3)nc1-2 [Example 64, 9-Ethyl-2-(4-methoxyphenyl)-5,6-dihydrothieno[2',3':2,3]thiepino[4,5-c]pyridazin-3(2H)-one 7,7-dioxide] |  | 440 pM | 1.4 mg/kg |  |
| O=c1cc2c(nn1-c1ccc(Cl)cc1)-c1cc(Br)sc1S(=O)(=O)CC2 [Example 65, 9-Bromo-2-(4-chlorophenyl)-5,6-dihydrothieno[2',3':2,3]thiepino[4,5-c]pyridazin-3(2H)-one 7,7-dioxide] |  | 120 pM | 1.4 mg/kg |  |
| CCCc1cc2c(s1)SCCc1cc(=O)n(-c3ccc(Cl)cc3)nc1-2 [Example 69, 2-(4-Chlorophenyl)-9-propyl-5,6-dihydrothieno[2',3':2,3]thiepino[4,5-c]pyridazin-3(2H)-one] | 80% |  |  |  |
| CCCc1cc2c(s1)[S+]([O-])CCc1cc(=O)n(-c3ccc(Cl)cc3)nc1-2 (centres unmarked) [Example 70, 2-(4-Chlorophenyl)-9-propyl-5,6-dihydrothienol[2',3':2,3]thiepino[4,5-c]pyridazin-3(2H)-one 7-oxide] |  | 620 pM | 0.62 mg/kg |  |
| CCCc1cc2c(s1)S(=O)(=O)CCc1cc(=O)n(-c3ccc(Cl)cc3)nc1-2 [Example 71, 2-(4-Chlorophenyl)-9-propyl-5,6-dihydrothieno[2',3':2,3]thiepino[4,5-c]pyridazin-3(2H)-one 7,7-dioxide] | 100% |  |  |  |
